Patent US20230272029A1, “CO-AGONISTS AT GLP-1 AND GIP RECEPTORS SUITABLE FOR ORAL DELIVERY” (Novo Nordisk A/S, priority 2020, published 2023)
Marks after values point to notes of the source that are not given here. Starred links: 1 amine or outer side, 2 acyl side, 3 side chain; linkers in the order of their positions; H or OH if unused. Non-standard residues stand in square brackets, D forms with d. Residues, ends and D or L forms follow the SMILES beside them. Groups on a side chain read outwards from the residue. *: point of attachment. C20 diacid = O=C(O)CCCCCCCCCCCCCCCCCCC(=O)*; C18 diacid = O=C(O)CCCCCCCCCCCCCCCCC(=O)*; γGlu = O=C(O)[C@H](CCC(=O)[*:2])N[*:1]; εLys = N[C@@H](CCCCN[*:1])C(=O)[*:2]; Aib = CC(C)(N)C(=O)O

Experiment: Pharmacokinetic study in dogs after oral dosing of tablets with SNAC
Assay type: in vivo, Beagle dogs
Conditions: dog, in vivo, po
Protocol: The purpose of this example is to determine the half-life and plasma exposure in vivo of the compounds of the present invention after p.o. administration to beagle dogs, i.e. the terminal half-life and concentration of test substance that reaches circulation with time. This is done in a pharmacokinetic (PK) study, where these parameters of the compound in question are determined. By terminal half-life is generally meant the period of time it takes to halve a certain plasma concentration, measured after the initial distribution phase.
The amount of SNAC in the tablet composition was 100-300 mg, the amount of magnesium stearate in the tablet composition was 7.7 mg, and the target amount of each test substance in the tablet composition was 3-4 mg.
Male beagle dogs, 1-7 years of age and weighing 9-17 kg during the study period, were included in the study. The dogs were dosed in a fasting state. The dogs were group housed in pens (12 hours light: 12 hours dark), and fed individually and restrictedly once daily with Royal Canin Medium Adult dog food (Royal Canin Products, China Branch, or Brogaarden A/S, Denmark). The dogs were used for repeated PK studies with a suitable wash-out period between successive dosing. An appropriate acclimatization period was given prior to initiation of the first PK study. All handling, dosing, and blood sampling of the animals were performed by trained and skilled staff. Before the studies, the dogs were fasted overnight and from 0 to 4 hours after dosing. The dogs were restricted to water 1 hour before dosing until 4 hours after dosing, but otherwise had ad libitum access to water during the whole period.
The compositions were administered by a single oral dosing to the dogs in groups of 6-8 dogs. […] The mouth was then closed, and 10 mL of tap water was given by syringe or gavage to facilitate swallowing of the tablet.
For each blood sample time point, approximately 0.8 mL of whole blood was collected in a 1.5 mL EDTA-coated tube, which was gently turned to mix the sample with EDTA. Blood samples were collected in EDTA buffer (8 mM) and then centrifuged at 4° C. and 2000g for 10 minutes. Plasma was pipetted into Micronic tubes on dry ice, and kept at −20° C. or lower until analysis. Blood samples were taken as appropriate, for example from a venflon in the cephalic vein in the front leg for the first 2 hours and then with syringe from the jugular vein for the rest of the time points. The first few drops were allowed to drain from the venflon to avoid heparin saline from the venflon in the sample.
All blood samples were collected into test tubes containing EDTA for stabilisation and kept on ice until centrifugation. Plasma was separated from whole blood by centrifugation and the plasma was stored at −20° C. or lower until analysis.
The plasma was analysed for test substance using LC-MS (Liquid Chromatography-Mass Spectrometry) as known to the person skilled in the art. […] RP-HPLC separation was achieved using a linear gradient of 1:1 acetonitrile/methanol in 1% aqueous formic acid using either: a Phenomenex Onyx Monolithic C18 column (50×2.0 mm) and a flow rate of 0.8 mL/min at 30° C.; or an Agilent Poroshell 120 SB-C18 column (50×2.1 mm, 2.7 μm) at a flow rate of 0.4 mL/min at 60° C. The mass spectrometer was operated in either positive ionization SIM mode or positive ionization PRM mode.
For each individual animal, a plasma concentration-time profile was analysed by a non-compartmental model in Pharsight Phoenix WinNonLin ver. 6.4 software or other relevant software for PK analysis, and the resulting terminal half-life (t1/2), maximum plasma concentration per dose (Cmax/D), time for maximum plasma concentration (tmax), and area under the curve to infinity per dose (AUC/D) were determined. Summary statistics of pharmacokinetic results were presented as median (for tmax), harmonic mean ([…]), or arithmetic mean (Cmax, AUC).
CC[C@H](C)[C@H](NC(=O)[C@H](Cc1ccccc1)NC(=O)[C@H](CCC(=O)O)NC(=O)[C@H](CCCNC(=N)N)NC(=O)[C@H](C)NC(=O)[C@H](C)NC(=O)[C@H](CCC(N)=O)NC(=O)[C@H](CCCCNC(=O)[C@@H](N)CCCCNC(=O)[C@@H](N)CCCCNC(=O)CC[C@H](NC(=O)CCCCCCCCCCCCCCCCC(=O)O)C(=O)O)NC(=O)[C@H](CCC(=O)O)NC(=O)[C@H](CC(C)C)NC(=O)[C@H](CC(C)C)NC(=O)[C@@H](NC(=O)[C@H](CO)NC(=O)[C@H](Cc1ccc(O)cc1)NC(=O)[C@H](CC(=O)O)NC(=O)[C@H](CO)NC(=O)[C@@H](NC(=O)[C@H](Cc1ccccc1)NC(=O)[C@@H](NC(=O)CNC(=O)[C@H](CCC(=O)O)NC(=O)C(C)(C)NC(=O)[C@@H](N)Cc1ccc(O)cc1)[C@@H](C)O)[C@@H](C)O)[C@@H](C)CC)C(=O)N[C@@H](CC(N)=O)C(=O)N[C@@H](Cc1c[nH]c2ccccc12)C(=O)N[C@@H](CC(C)C)C(=O)N[C@@H](CC(C)C)C(=O)N[C@@H](C)C(=O)NCC(=O)NCC(=O)N1CCC[C@H]1C(=O)N[C@@H](CO)C(=O)N[C@@H](CO)C(=O)O [Compound No. 20] (H-Y[Aib]EGTFTSDYSILLEK([εLys-εLys-γGlu-C18 diacid])QAAREFINWLLAGGPSS-OH) gave a Cmax/Dose of 0.21 kg/L. For CC[C@H](C)[C@H](NC(=O)[C@H](Cc1ccccc1)NC(=O)[C@H](CCC(=O)O)NC(=O)[C@H](CCCNC(=N)N)NC(=O)[C@H](C)NC(=O)[C@H](C)NC(=O)[C@H](CCC(N)=O)NC(=O)[C@H](CCCCNC(=O)[C@@H](N)CCCCNC(=O)[C@@H](N)CCCCNC(=O)CC[C@H](NC(=O)CCCCCCCCCCCCCCCCC(=O)O)C(=O)O)NC(=O)[C@H](CCC(=O)O)NC(=O)[C@H](CC(C)C)NC(=O)[C@H](CC(C)C)NC(=O)[C@@H](NC(=O)[C@H](CO)NC(=O)[C@H](Cc1ccc(O)cc1)NC(=O)[C@H](CC(=O)O)NC(=O)[C@H](CO)NC(=O)[C@@H](NC(=O)[C@H](Cc1ccccc1)NC(=O)[C@@H](NC(=O)CNC(=O)[C@H](CCC(=O)O)NC(=O)C(C)(C)NC(=O)[C@@H](N)Cc1ccc(O)cc1)[C@@H](C)O)[C@@H](C)O)[C@@H](C)CC)C(=O)N[C@@H](CCC(=O)O)C(=O)N[C@@H](Cc1c[nH]c2ccccc12)C(=O)N[C@@H](CC(C)C)C(=O)N[C@@H](CC(C)C)C(=O)N[C@@H](C)C(=O)NCC(=O)NCC(=O)N1CCC[C@H]1C(=O)N[C@@H](CO)C(=O)N[C@@H](CO)C(=O)NCC(=O)N[C@@H](C)C(=O)N1CCC[C@H]1C(=O)N1CCC[C@H]1C(=O)N1CCC[C@H]1C(=O)N[C@@H](CO)C(=O)O [Compound No. 31] (H-Y[Aib]EGTFTSDYSILLEK([εLys-εLys-γGlu-C18 diacid])QAAREFIEWLLAGGPSSGAPPPS-OH), the Cmax/Dose was 0.35** kg/L. For CC[C@H](C)[C@H](NC(=O)[C@H](Cc1ccccc1)NC(=O)[C@H](CCC(=O)O)NC(=O)[C@H](CCCNC(=N)N)NC(=O)[C@H](C)NC(=O)[C@H](C)NC(=O)[C@H](CCC(N)=O)NC(=O)[C@H](CCCCNC(=O)[C@@H](N)CCCCNC(=O)[C@@H](N)CCCCNC(=O)CC[C@H](NC(=O)CCCCCCCCCCCCCCCCCCC(=O)O)C(=O)O)NC(=O)[C@H](CCC(=O)O)NC(=O)[C@H](CC(C)C)NC(=O)[C@H](Cc1ccc(O)cc1)NC(=O)[C@@H](NC(=O)[C@H](CO)NC(=O)[C@H](Cc1ccc(O)cc1)NC(=O)[C@H](CC(=O)O)NC(=O)[C@H](CO)NC(=O)[C@@H](NC(=O)[C@H](Cc1ccccc1)NC(=O)[C@@H](NC(=O)CNC(=O)[C@H](CCC(=O)O)NC(=O)C(C)(C)NC(=O)[C@@H](N)Cc1ccc(O)cc1)[C@@H](C)O)[C@@H](C)O)[C@@H](C)CC)C(=O)N[C@@H](CC(N)=O)C(=O)N[C@@H](Cc1c[nH]c2ccccc12)C(=O)N[C@@H](CC(C)C)C(=O)N[C@@H](CC(C)C)C(=O)N[C@@H](C)C(=O)NCC(=O)NCC(=O)N1CCC[C@H]1C(=O)N[C@@H](CO)C(=O)N[C@@H](CO)C(=O)NCC(=O)N[C@@H](C)C(=O)N1CCC[C@H]1C(=O)N1CCC[C@H]1C(=O)N1CCC[C@H]1C(=O)N[C@@H](CO)C(=O)O [Compound No. 16] (H-Y[Aib]EGTFTSDYSIYLEK([εLys-εLys-γGlu-C20 diacid])QAAREFINWLLAGGPSSGAPPPS-OH), the AUC/Dose was 8.6 kg·h/L and the Cmax/Dose was 0.21 kg/L. For CC[C@H](C)[C@H](NC(=O)[C@H](Cc1ccccc1)NC(=O)[C@H](CCC(=O)O)NC(=O)[C@H](Cc1c[nH]cn1)NC(=O)[C@H](C)NC(=O)[C@H](C)NC(=O)[C@H](CCC(N)=O)NC(=O)[C@H](CCCCNC(=O)[C@@H](N)CCCCNC(=O)[C@@H](N)CCCCNC(=O)CC[C@H](NC(=O)CCCCCCCCCCCCCCCCC(=O)O)C(=O)O)NC(=O)[C@H](CCC(=O)O)NC(=O)[C@H](CC(C)C)NC(=O)[C@H](CC(C)C)NC(=O)[C@@H](NC(=O)[C@H](CO)NC(=O)[C@H](Cc1ccc(O)cc1)NC(=O)[C@H](CC(=O)O)NC(=O)[C@H](CO)NC(=O)[C@@H](NC(=O)[C@H](Cc1ccccc1)NC(=O)[C@@H](NC(=O)CNC(=O)[C@H](CCC(=O)O)NC(=O)C(C)(C)NC(=O)[C@@H](N)Cc1ccc(O)cc1)[C@@H](C)O)[C@@H](C)O)[C@@H](C)CC)C(=O)N[C@@H](CCC(=O)O)C(=O)N[C@@H](Cc1c[nH]c2ccccc12)C(=O)N[C@@H](CC(C)C)C(=O)N[C@@H](CC(C)C)C(=O)N[C@@H](C)C(=O)NCC(=O)NCC(=O)N1CCC[C@H]1C(=O)N[C@@H](CO)C(=O)N[C@@H](CO)C(=O)NCC(=O)N[C@@H](C)C(=O)N1CCC[C@H]1C(=O)N1CCC[C@H]1C(=O)N1CCC[C@H]1C(=O)N[C@@H](CO)C(=O)O [Compound No. 30] (H-Y[Aib]EGTFTSDYSILLEK([εLys-εLys-γGlu-C18 diacid])QAAHEFIEWLLAGGPSSGAPPPS-OH), the AUC/Dose was 6.5 kg·h/L and the Cmax/Dose was 0.24 kg/L. CC[C@H](C)[C@H](NC(=O)[C@H](Cc1ccccc1)NC(=O)[C@H](CCC(=O)O)NC(=O)[C@H](CCCNC(=N)N)NC(=O)[C@H](C)NC(=O)[C@H](C)NC(=O)[C@H](CCC(N)=O)NC(=O)[C@H](CCC(=O)O)NC(=O)[C@H](CCC(=O)O)NC(=O)[C@H](CC(C)C)NC(=O)[C@H](CC(C)C)NC(=O)[C@H](CCCCNC(=O)[C@@H](N)CCCCNC(=O)[C@@H](N)CCCCNC(=O)CC[C@H](NC(=O)CCCCCCCCCCCCCCCCC(=O)O)C(=O)O)NC(=O)[C@H](CO)NC(=O)[C@H](Cc1ccc(O)cc1)NC(=O)[C@H](CC(=O)O)NC(=O)[C@H](CO)NC(=O)[C@@H](NC(=O)[C@H](Cc1ccccc1)NC(=O)[C@@H](NC(=O)CNC(=O)[C@H](CCC(=O)O)NC(=O)C(C)(C)NC(=O)[C@@H](N)Cc1ccc(O)cc1)[C@@H](C)O)[C@@H](C)O)C(=O)N[C@@H](CCC(=O)O)C(=O)N[C@@H](Cc1c[nH]c2ccccc12)C(=O)N[C@@H](CC(C)C)C(=O)N[C@@H](CC(C)C)C(=O)N[C@@H](C)C(=O)NCC(=O)NCC(=O)N1CCC[C@H]1C(=O)N[C@@H](CO)C(=O)N[C@@H](CO)C(=O)NCC(=O)N[C@@H](C)C(=O)N1CCC[C@H]1C(=O)N1CCC[C@H]1C(=O)N1CCC[C@H]1C(=O)N[C@@H](CO)C(=O)O [Compound No. 40] gave an AUC/Dose of 27.0 kg·h/L and a Cmax/Dose of 0.48 kg/L.
